# From patent US20230017045A1, “PYRIDINE AND PYRIMIDINE CARBOXYLATE HERBICIDES AND METHODS OF USE THEREOF” (Dow AgroSciences LLC, priority 2017, published 2023)
# Tested on: test plant species
# Assay: Post-emergent herbicidal activity test (greenhouse, foliar spray, visual growth reduction)
# Type: in vivo
# Details: post-emergence, 336 h, ALOMY: blackgrass (Alopecurus myosuroides), 140 g ai/ha, 14 days after application, read-out: Visual Growth Reduction (%) 14 Days After Application, ALOMY
# Outline: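 Greenhouse plants at first–second true leaf stage sprayed overhead at 187 L/ha with compound in acetone/water/isopropanol/DMSO/crop oil/X-77 carrier; controls received solvent blank. Injury rated visually after 14 d on a 0–100% scale versus untreated and control plants, converted to growth reduction.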
row,SMILES,pest or weed control at 140 g/ha [%]
1,"COC(=O)c1nc(-c2ccc(C(C)O)cc2Cl)ccc1Cl (stereo not drawn) [F1, methyl 3-chloro-6-(2-chloro-4-(1-hydroxyethyl)phenyl)picolinate]",0 to 29
2,"O=C(OCc1cccnc1)c1nc(-c2ccc(C(F)(F)F)cc2Cl)ccc1Cl [F79, Pyridin-3-ylmethyl 3-chloro-6-(2-chloro-4-(trifluoromethyl)phenyl)picolinate]",60 to 74

# Same assay, conditions: post-emergence, 336 h, AMARE: redroot pigweed (Amaranthus retroflexus), 140 g ai/ha, 14 days after application, read-out: Visual Growth Reduction (%) 14 Days After Application, AMARE
row,SMILES,pest or weed control at 140 g/ha [%]
1,"COC(=O)c1nc(-c2ccc(C(C)O)cc2Cl)ccc1Cl (stereo not drawn) [F1, methyl 3-chloro-6-(2-chloro-4-(1-hydroxyethyl)phenyl)picolinate]",0 to 29
2,"O=C(OCc1cccnc1)c1nc(-c2ccc(C(F)(F)F)cc2Cl)ccc1Cl [F79, Pyridin-3-ylmethyl 3-chloro-6-(2-chloro-4-(trifluoromethyl)phenyl)picolinate]",95 to 100

# Same assay, conditions: post-emergence, 336 h, AVEFA: wild oat (Avena fatua), 140 g ai/ha, 14 days after application, read-out: Visual Growth Reduction (%) 14 Days After Application, AVEFA
row,SMILES,pest or weed control at 140 g/ha [%]
1,"COC(=O)c1nc(-c2ccc(C(C)O)cc2Cl)ccc1Cl (stereo not drawn) [F1, methyl 3-chloro-6-(2-chloro-4-(1-hydroxyethyl)phenyl)picolinate]",0 to 29
2,"O=C(OCc1cccnc1)c1nc(-c2ccc(C(F)(F)F)cc2Cl)ccc1Cl [F79, Pyridin-3-ylmethyl 3-chloro-6-(2-chloro-4-(trifluoromethyl)phenyl)picolinate]",75 to 84

# Same assay, conditions: post-emergence, 336 h, CHEAL: lambsquarters (Chenopodium album), 140 g ai/ha, 14 days after application, read-out: Visual Growth Reduction (%) 14 Days After Application, CHEAL
row,SMILES,pest or weed control at 140 g/ha [%]
1,"COC(=O)c1nc(-c2ccc(C(C)O)cc2Cl)ccc1Cl (stereo not drawn) [F1, methyl 3-chloro-6-(2-chloro-4-(1-hydroxyethyl)phenyl)picolinate]",0 to 29
2,"O=C(OCc1cccnc1)c1nc(-c2ccc(C(F)(F)F)cc2Cl)ccc1Cl [F79, Pyridin-3-ylmethyl 3-chloro-6-(2-chloro-4-(trifluoromethyl)phenyl)picolinate]",95 to 100

# Same assay, conditions: post-emergence, 336 h, CIRAR: canada thistle (Cirsium arvense), 140 g ai/ha, 14 days after application, read-out: Visual Growth Reduction (%) 14 Days After Application, CIRAR
row,SMILES,pest or weed control at 140 g/ha [%]
1,"COC(=O)c1nc(-c2ccc(C(C)O)cc2Cl)ccc1Cl (stereo not drawn) [F1, methyl 3-chloro-6-(2-chloro-4-(1-hydroxyethyl)phenyl)picolinate]",0 to 29
2,"O=C(OCc1cccnc1)c1nc(-c2ccc(C(F)(F)F)cc2Cl)ccc1Cl [F79, Pyridin-3-ylmethyl 3-chloro-6-(2-chloro-4-(trifluoromethyl)phenyl)picolinate]",85 to 94

# Same assay, conditions: post-emergence, 336 h, CYPES: yellow nutsedge (Cyperus esculentus), 140 g ai/ha, 14 days after application, read-out: Visual Growth Reduction (%) 14 Days After Application, CYPES
row,SMILES,pest or weed control at 140 g/ha [%]
1,"COC(=O)c1nc(-c2ccc(C(C)O)cc2Cl)ccc1Cl (stereo not drawn) [F1, methyl 3-chloro-6-(2-chloro-4-(1-hydroxyethyl)phenyl)picolinate]",45 to 59
2,"O=C(OCc1cccnc1)c1nc(-c2ccc(C(F)(F)F)cc2Cl)ccc1Cl [F79, Pyridin-3-ylmethyl 3-chloro-6-(2-chloro-4-(trifluoromethyl)phenyl)picolinate]",0 to 29

# Same assay, conditions: post-emergence, 336 h, DIGSA: crabgrass (Digitaria sanguinalis), 140 g ai/ha, 14 days after application, read-out: Visual Growth Reduction (%) 14 Days After Application, DIGSA
row,SMILES,pest or weed control at 140 g/ha [%]
1,"COC(=O)c1nc(-c2ccc(C(C)O)cc2Cl)ccc1Cl (stereo not drawn) [F1, methyl 3-chloro-6-(2-chloro-4-(1-hydroxyethyl)phenyl)picolinate]",0 to 29
2,"O=C(OCc1cccnc1)c1nc(-c2ccc(C(F)(F)F)cc2Cl)ccc1Cl [F79, Pyridin-3-ylmethyl 3-chloro-6-(2-chloro-4-(trifluoromethyl)phenyl)picolinate]",95 to 100

# Same assay, conditions: post-emergence, 336 h, ECHCG: barnyardgrass (Echinochloa crus-galli), 140 g ai/ha, 14 days after application, read-out: Visual Growth Reduction (%) 14 Days After Application, ECHCG
row,SMILES,pest or weed control at 140 g/ha [%]
1,"O=C(OCc1cccnc1)c1nc(-c2ccc(C(F)(F)F)cc2Cl)ccc1Cl [F79, Pyridin-3-ylmethyl 3-chloro-6-(2-chloro-4-(trifluoromethyl)phenyl)picolinate]",95 to 100

# Same assay, conditions: post-emergence, 336 h, IPOHE: ivy-leaf morning glory (Ipomoea hederacea), 140 g ai/ha, 14 days after application, read-out: Visual Growth Reduction (%) 14 Days After Application, IPOHE
row,SMILES,pest or weed control at 140 g/ha [%]
1,"O=C(OCc1cccnc1)c1nc(-c2ccc(C(F)(F)F)cc2Cl)ccc1Cl [F79, Pyridin-3-ylmethyl 3-chloro-6-(2-chloro-4-(trifluoromethyl)phenyl)picolinate]",95 to 100

# Same assay, conditions: post-emergence, 336 h, KCHSC: kochia (Bassia scoparia), 140 g ai/ha, 14 days after application, read-out: Visual Growth Reduction (%) 14 Days After Application, KCHSC
row,SMILES,pest or weed control at 140 g/ha [%]
1,"O=C(OCc1cccnc1)c1nc(-c2ccc(C(F)(F)F)cc2Cl)ccc1Cl [F79, Pyridin-3-ylmethyl 3-chloro-6-(2-chloro-4-(trifluoromethyl)phenyl)picolinate]",95 to 100

# Same assay, conditions: post-emergence, 336 h, ORYSA: rice (Oryza sativa), 140 g ai/ha, 14 days after application, read-out: Visual Growth Reduction (%) 14 Days After Application, ORYSA
row,SMILES,pest or weed control at 140 g/ha [%]
1,"O=C(OCc1cccnc1)c1nc(-c2ccc(C(F)(F)F)cc2Cl)ccc1Cl [F79, Pyridin-3-ylmethyl 3-chloro-6-(2-chloro-4-(trifluoromethyl)phenyl)picolinate]",30 to 44

# Same assay, conditions: post-emergence, 336 h, SETFA: giant foxtail (Setaria faberi), 140 g ai/ha, 14 days after application, read-out: Visual Growth Reduction (%) 14 Days After Application, SETFA
row,SMILES,pest or weed control at 140 g/ha [%]
1,"O=C(OCc1cccnc1)c1nc(-c2ccc(C(F)(F)F)cc2Cl)ccc1Cl [F79, Pyridin-3-ylmethyl 3-chloro-6-(2-chloro-4-(trifluoromethyl)phenyl)picolinate]",95 to 100

# Same assay, conditions: post-emergence, 336 h, SORVU: grain sorghum (Sorghum vulgare), 140 g ai/ha, 14 days after application, read-out: Visual Growth Reduction (%) 14 Days After Application, SORVU
row,SMILES,pest or weed control at 140 g/ha [%]
1,"O=C(OCc1cccnc1)c1nc(-c2ccc(C(F)(F)F)cc2Cl)ccc1Cl [F79, Pyridin-3-ylmethyl 3-chloro-6-(2-chloro-4-(trifluoromethyl)phenyl)picolinate]",95 to 100

# Same assay, conditions: post-emergence, 336 h, STEME: common chickweed (Stellaria media), 140 g ai/ha, 14 days after application, read-out: Visual Growth Reduction (%) 14 Days After Application, STEME
row,SMILES,pest or weed control at 140 g/ha [%]
1,"O=C(OCc1cccnc1)c1nc(-c2ccc(C(F)(F)F)cc2Cl)ccc1Cl [F79, Pyridin-3-ylmethyl 3-chloro-6-(2-chloro-4-(trifluoromethyl)phenyl)picolinate]",0 to 29

# Same assay, conditions: post-emergence, 336 h, TRZAS: wheat, spring (Triticum aestivum), 140 g ai/ha, 14 days after application, read-out: Visual Growth Reduction (%) 14 Days After Application, TRZAS
row,SMILES,pest or weed control at 140 g/ha [%]
1,"O=C(OCc1cccnc1)c1nc(-c2ccc(C(F)(F)F)cc2Cl)ccc1Cl [F79, Pyridin-3-ylmethyl 3-chloro-6-(2-chloro-4-(trifluoromethyl)phenyl)picolinate]",75 to 84

# Same assay, conditions: post-emergence, 336 h, barnyardgrass (Echinochloa crus-galli), 14 Days After Application, 140 g ai/ha, read-out: Visual Growth Reduction (%) ECHCG
row,SMILES,pest or weed control at 140 g/ha [%]
1,"COC(=O)c1nc(-c2ccc(C(C)O)cc2Cl)ccc1Cl (stereo not drawn) [F1, methyl 3-chloro-6-(2-chloro-4-(1-hydroxyethyl)phenyl)picolinate]",0 to 29

# Same assay, conditions: post-emergence, 336 h, common chickweed (Stellaria media), 14 Days After Application, 140 g ai/ha, read-out: Visual Growth Reduction (%) STEME
row,SMILES,pest or weed control at 140 g/ha [%]
1,"COC(=O)c1nc(-c2ccc(C(C)O)cc2Cl)ccc1Cl (stereo not drawn) [F1, methyl 3-chloro-6-(2-chloro-4-(1-hydroxyethyl)phenyl)picolinate]",0 to 29

# Same assay, conditions: post-emergence, 336 h, giant foxtail (Setaria faberi), 14 Days After Application, 140 g ai/ha, read-out: Visual Growth Reduction (%) SETFA
row,SMILES,pest or weed control at 140 g/ha [%]
1,"COC(=O)c1nc(-c2ccc(C(C)O)cc2Cl)ccc1Cl (stereo not drawn) [F1, methyl 3-chloro-6-(2-chloro-4-(1-hydroxyethyl)phenyl)picolinate]",0 to 29

# Same assay, conditions: post-emergence, 336 h, ivy-leaf morning glory (Ipomoea hederacea), 14 Days After Application, 140 g ai/ha, read-out: Visual Growth Reduction (%) IPOHE
row,SMILES,pest or weed control at 140 g/ha [%]
1,"COC(=O)c1nc(-c2ccc(C(C)O)cc2Cl)ccc1Cl (stereo not drawn) [F1, methyl 3-chloro-6-(2-chloro-4-(1-hydroxyethyl)phenyl)picolinate]",0 to 29

# Same assay, conditions: post-emergence, 336 h, johnsongrass (Sorghum vulgare), 14 Days After Application, 140 g ai/ha, read-out: Visual Growth Reduction (%) SORVU
row,SMILES,pest or weed control at 140 g/ha [%]
1,"COC(=O)c1nc(-c2ccc(C(C)O)cc2Cl)ccc1Cl (stereo not drawn) [F1, methyl 3-chloro-6-(2-chloro-4-(1-hydroxyethyl)phenyl)picolinate]",0 to 29

# Same assay, conditions: post-emergence, 336 h, kochia (Bassia scoparia), 14 Days After Application, 140 g ai/ha, read-out: Visual Growth Reduction (%) KCHSC
row,SMILES,pest or weed control at 140 g/ha [%]
1,"COC(=O)c1nc(-c2ccc(C(C)O)cc2Cl)ccc1Cl (stereo not drawn) [F1, methyl 3-chloro-6-(2-chloro-4-(1-hydroxyethyl)phenyl)picolinate]",0 to 29

# Same assay, conditions: post-emergence, 336 h, rice (Oryza sativa), 14 Days After Application, 140 g ai/ha, read-out: Visual Growth Reduction (%) ORYSA
row,SMILES,pest or weed control at 140 g/ha [%]
1,"COC(=O)c1nc(-c2ccc(C(C)O)cc2Cl)ccc1Cl (stereo not drawn) [F1, methyl 3-chloro-6-(2-chloro-4-(1-hydroxyethyl)phenyl)picolinate]",0 to 29

# Same assay, conditions: post-emergence, 336 h, wheat, spring (Triticum aestivum), 14 Days After Application, 140 g ai/ha, read-out: Visual Growth Reduction (%) TRZAS
row,SMILES,pest or weed control at 140 g/ha [%]
1,"COC(=O)c1nc(-c2ccc(C(C)O)cc2Cl)ccc1Cl (stereo not drawn) [F1, methyl 3-chloro-6-(2-chloro-4-(1-hydroxyethyl)phenyl)picolinate]",0 to 29
